The source of these data is US8008488B2 (Abbott GmbH & Co. KG, priority 2003, dated 2011).

Where a name gives a salt, the structure may show the parent alone.

The target in experiment [1] is T1, human dopamine D3 receptors (Homo sapiens, UniProt P35462).
T1 construct: expressed in transfected cells
The experiment can be described thus: Dopamine D3 receptor binding, displacement of [125I]-iodosulpride. The following applies: membranes from HEK-293 cells with stably expressed human D3 receptors, 0.1 nM [125I]-iodosulpride.

Experiment [2] deals with T2, human dopamine D2L receptors (long isoform) (Homo sapiens, UniProt P14416).
T2 construct: expressed in transfected cells
T2 sequence (P14416 whole entry, canonical isoform): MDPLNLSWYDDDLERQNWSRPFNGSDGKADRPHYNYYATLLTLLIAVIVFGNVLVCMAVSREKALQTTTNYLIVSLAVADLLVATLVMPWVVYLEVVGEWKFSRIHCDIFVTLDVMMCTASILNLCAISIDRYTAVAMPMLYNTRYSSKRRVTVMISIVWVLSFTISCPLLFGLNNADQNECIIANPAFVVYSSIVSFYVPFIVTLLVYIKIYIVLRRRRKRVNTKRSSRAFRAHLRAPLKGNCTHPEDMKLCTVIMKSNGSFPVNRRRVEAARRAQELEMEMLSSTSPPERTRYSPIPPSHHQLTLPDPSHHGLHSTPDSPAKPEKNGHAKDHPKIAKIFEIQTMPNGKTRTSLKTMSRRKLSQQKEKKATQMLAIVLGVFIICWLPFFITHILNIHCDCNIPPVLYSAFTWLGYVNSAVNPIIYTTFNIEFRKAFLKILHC
The experiment can be described thus: Dopamine D2L receptor binding, displacement of [125I]-iodospiperone. As to conditions: *Ki(D2L)/Ki(D3), HEK-293 membranes, 0.01 nM [125I]-iodospiperone. The method, boiled down:
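Triplicate incubations ran 60 min at 25 °C in pH 7.4 Tris buffer with 120 mM NaCl, 5 mM KCl, 2 mM CaCl2, 2 mM MgCl2 and 0.1% BSA. Bound radioactivity was collected by GF/B filtration and counted as dpm. Inhibition curves were fitted by iterative nonlinear regression.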
(Displacement assays read how much labelled ligand stays bound in the presence of the test substance.)

T1 sequence (P35462 whole entry): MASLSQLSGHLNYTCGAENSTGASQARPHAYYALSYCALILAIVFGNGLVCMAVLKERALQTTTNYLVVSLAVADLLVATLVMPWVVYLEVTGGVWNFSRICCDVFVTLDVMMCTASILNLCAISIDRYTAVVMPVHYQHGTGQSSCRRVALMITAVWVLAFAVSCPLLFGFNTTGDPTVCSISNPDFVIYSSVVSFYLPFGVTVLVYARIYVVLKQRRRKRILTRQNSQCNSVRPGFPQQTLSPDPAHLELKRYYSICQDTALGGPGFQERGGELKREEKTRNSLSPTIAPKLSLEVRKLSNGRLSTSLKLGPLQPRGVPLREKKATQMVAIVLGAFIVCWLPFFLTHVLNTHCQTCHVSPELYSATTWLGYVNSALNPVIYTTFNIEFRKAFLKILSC

For `Cc1cn(CCCCN2CCN(c3cccc(C(F)(F)F)c3)CC2)c(=O)[nH]c1=O` [Example 129, 5-Methyl-1-{4-[4-(3-trifluoromethylphenyl)piperazin-1-yl]butyl}-1H-pyrimidine-2,4-dione], the Ki in experiment [1] is 1.3 nM. Further, the “Selectivity D3 vs. D2L*” value in experiment [2] is 48.
In the case of `Cc1cn(CCCCN2CCN(c3cc(C4CCC4)nc(C(C)(C)C)n3)CC2)c(=O)nc1O` [Example 22, 1-{4-[4-(2-tert-Butyl-6-cyclobutylpyrimidin-4-yl)piperazin-1-yl]butyl}-4-hydroxy-5-methylpyrimidin-2(1H)-one], the affinity in experiment [1], expressed as Ki, was 1.16 nM. The “Selectivity D3 vs. D2L*” value in experiment [2] is recorded as 77.
Taken in the same sequence, the figures for `CCCc1cc(N2CCN(CCCCn3ccc(-c4ccsc4)nc3=O)CC2)nc(C(C)(C)C)n1` [Example 93, 1-{4-[4-(2-tert-Butyl-6-propylpyrimidin-4-yl)piperazin-1-yl]butyl}-4-thiophen-3-yl-1H-pyrimidin-2-one] were 0.65 nM and 40.
Taken in the same sequence, the figures for `CC(C)(C)c1nc(N2CCN(CCCCn3ccc(C(F)(F)F)nc3=O)CC2)cc(C(F)(F)F)n1.Cl` [Example 15, 1-[2-tert-Butyl-6-(trifluoromethyl)pyrimidin-4-yl]-4-{4-[2-oxo-4-(trifluoromethyl)pyrimidin-1 (2H)-yl]butyl}piperazin-4-ium chloride] were 14.5 nM and 64.
The like results for `CCCc1cc(N2CCN(CCCCn3ccc(-c4ccco4)nc3=O)CC2)nc(C(C)(C)C)n1` [Example 50, 1-{4-[4-(2-tert-Butyl-6-propylpyrimidin-4-yl)piperazin-1-yl]butyl}-4-furan-2-yl-1H-pyrimidin-2-one] were, in that order, 0.72 nM and 77.
As for `CC(C)(C)c1nc(N2CCN(CCCCn3cc(C#N)c(=O)[nH]c3=O)CC2)cc(C(F)(F)F)n1` [Example 18, 1-(4-{4-[2-tert-Butyl-6-(trifluoromethyl)pyrimidin-4-yl]piperazin-1-yl}butyl)-2,4-dioxo-1,2,3,4-tetrahydropyrimidine-5-carbonitrile], the Ki in experiment [1] was 4.78 nM. In addition, the “Selectivity D3 vs. D2L*” value in experiment [2] came to 99.
Taken in the same sequence, the figures for `CC(C)(C)c1nc(N2CCN(CCCCn3ccc(-c4ccc(F)cc4)nc3=O)CC2)cc(C(F)(F)F)n1.Cl` [Example 45, 4-(2-tert-Butyl-6-trifluoromethylpyrimidin-4-yl)-1-{4-[4-(4-fluorophenyl)-2-oxo-2H-pyrimidin-1-yl]butyl}piperazin-1-ium chloride] were 4.99 nM and 37.
Taken in the same sequence, the figures for `CC(C)(C)c1nc(N2CCN(CCCCn3ccc(-c4ccccc4F)nc3=O)CC2)cc(C(F)(F)F)n1` [Example 67, 4-(2-tert-Butyl-6-trifluoromethylpyrimidin-4-yl)-1-{4-[4-(2-fluorophenyl)-2-oxo-2H-pyrimidin-1-yl]butyl}piperazin-1-ium fumarate] were 10.1 nM and 39.
The like results for `CC(=O)O.CC(C)(C)c1nc(N2CCN(CCCCn3ccc(C4CC4)nc3=O)CC2)cc(C(F)(F)F)n1` [Example 94, 4-(2-tert-Butyl-6-trifluoromethylpyrimidin-4-yl)-1-[4-(4-cyclopropyl-2-oxo-2H-pyrimidin-1-yl)butyl]piperazin-1-ium acetate] were, in that order, 4.28 nM and 36.
As to `Cc1cn(CC(C)CCN2CCN(c3cc(C(F)(F)F)nc(C(C)(C)C)n3)CC2)c(=O)[nH]c1=O` (single isomer, unassigned; (-)) [Example 64, (−)-1-{4-[4-(2-tert-Butyl-6-trifluoromethylpyrimidin-4-yl)piperazin-1-yl]-2-methylbutyl}-5-methyl-1H-pyrimidine-2,4-dione], the affinity in experiment [1], expressed as Ki, was 2.57 nM. In experiment [2], the “Selectivity D3 vs. D2L*” value is 57.
Taken in the same sequence, the figures for `O=c1ccn(CCCCN2CCN(c3cccc(Cl)c3Cl)CC2)c(=O)[nH]1` [Example 78, 1-{4-[4-(2,3-Dichlorophenyl)piperazin-1-yl]butyl}-1H-pyrimidine-2,4-dione] were 0.32 nM and 48.
The like results for `CCCc1cc(N2CCN(CCCCn3ccc(-c4cccc(F)c4)nc3=O)CC2)nc(C(C)(C)C)n1` [Example 72, 4-(2-tert-Butyl-6-propylpyrimidin-4-yl)-1-{4-[4-(3-fluorophenyl)-2-oxo-2H-pyrimidin-1-yl]butyl}piperazin-1-ium fumarate] were, in that order, 1.49 nM and 54.
Taken in the same sequence, the figures for `Cc1cn(CCCCN2CCN(c3cc(C(F)(F)F)nc(C(C)(C)C)n3)CC2)c(=O)nc1-c1ccccc1` [Example 26, 1-(4-{4-[2-tert-Butyl-6-(trifluoromethyl)pyrimidin-4-yl]piperazin-1-yl}butyl)-5-methyl-4-phenylpyrimidin-2(1H)-one] were 8.1 nM and 55.
As to “1-{4-[4-(2-tert-Butyl-6-propylpyrimidin-4-yl)piperazin-1-yl]butyl}-4-methyl-1H-pyrimidin-2-one [Example 69]”, the Ki in experiment [1] was determined as 1.8 nM. For the same compound, the “Selectivity D3 vs. D2L*” value in experiment [2] came out at 54.

For orientation: Ki means a dissociation constant, usually derived from enzyme kinetics or from competition with a known ligand. A lower Ki goes with a stronger hold on the target.
